Here are results for 22 compounds from patent US20230159538A1, “PYRROLIDINE-PYRAZOLES AS PYRUVATE KINASE ACTIVATORS” (Global Blood Therapeutics, Inc., priority 2020, published 2023).

The target in this assay is T1, Human pyruvate kinase R (PKR) (Homo sapiens, UniProt P30613).
T1 construct: Human pyruvate kinase R (PKR), residues 14-574; 6x-His (N, cleaved yes); 8x-Arg (N, cleaved yes); SUMO (N, cleaved yes); host or cells: E. coli
T1 sequence (P30613 14-574): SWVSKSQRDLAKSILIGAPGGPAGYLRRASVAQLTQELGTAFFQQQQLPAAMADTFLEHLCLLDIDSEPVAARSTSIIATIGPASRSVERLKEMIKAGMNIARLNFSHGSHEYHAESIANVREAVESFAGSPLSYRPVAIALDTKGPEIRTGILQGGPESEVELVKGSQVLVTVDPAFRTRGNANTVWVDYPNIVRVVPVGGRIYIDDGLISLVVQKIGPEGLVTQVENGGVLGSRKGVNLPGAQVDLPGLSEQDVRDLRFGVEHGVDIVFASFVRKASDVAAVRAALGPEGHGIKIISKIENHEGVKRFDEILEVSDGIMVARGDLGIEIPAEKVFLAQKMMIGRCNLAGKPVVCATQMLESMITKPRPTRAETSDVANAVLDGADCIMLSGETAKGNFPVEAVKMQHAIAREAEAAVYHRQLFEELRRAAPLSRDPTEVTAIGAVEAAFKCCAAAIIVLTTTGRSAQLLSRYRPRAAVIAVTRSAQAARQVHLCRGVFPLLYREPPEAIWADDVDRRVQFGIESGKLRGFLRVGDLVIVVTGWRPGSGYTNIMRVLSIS
The experiment in a line: Biochemical assay for activation of pyruvate kinase R (Kinase-Glo luminescence, ATP generation). The conditions noted are these: 0.1 nM PKR, 2 mM FBP, 0.3 mM ADP, 0.1 mM PEP. In outline:
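E. coli-expressed human PKR, freed of its His-Arg-SUMO tag and purified by anion exchange and size exclusion, was tested for activation. Read-out was luminescent measurement of ATP generation with Kinase-Glo reagent.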
For orientation: Kinase-Glo reads ATP consumption through a luciferase reaction.
The term AC50 denotes the concentration at which the activity in the assay is half-maximal. A low value points to activity at low concentration. Compound `N[C@@H](C(=O)N1Cc2cn(S(=O)(=O)c3ccc4c(c3)NCCO4)nc2C1)c1ccccc1F` [Compound 57, (2R)-2-amino-1-[2-(3,4-dihydro-2H-1,4-benzoxazine-6-sulfonyl)-2H,4H,5H,6H-pyrrolo[3,4-c]pyrazol-5-yl]-2-(2-fluorophenyl)ethan-1-one] showed an AC50 of 17 nM. `N[C@@H](C(=O)N1Cc2cn(S(=O)(=O)c3ccc4c(c3)OCCO4)nc2C1)c1ccccc1F` [Compound 58, (2R)-2-amino-1-[2-(2,3-dihydro-1,4-benzodioxine-6-sulfonyl)-2H,4H,5H,6H-pyrrolo[3,4-c]pyrazol-5-yl]-2-(2-fluorophenyl)ethan-1-one] displayed an AC50 of 25 nM.

For `Cc1ccccc1[C@@H](N)C(=O)N1Cc2cn(S(=O)(=O)c3ccc4ncsc4c3)nc2C1` [Compound 59, (2R)-2-amino-1-[2-(1,3-benzothiazole-6-sulfonyl)-2H,4H,5H,6H-pyrrolo[3,4-c]pyrazol-5-yl]-2-(2-methylphenyl)ethan-1-one], the half-maximal activity concentration (AC50) came to 48 nM.

For `C[C@](N)(C(=O)N1Cc2cn(S(=O)(=O)c3ccc4ncsc4c3)nc2C1)c1ccccc1` [Compound 60, (2R)-2-amino-1-[2-(1,3-benzothiazole-6-sulfonyl)-2H,4H,5H,6H-pyrrolo[3,4-c]pyrazol-5-yl]-2-phenylpropan-1-one], half-maximal activity (AC50) was put at 77 nM. In turn, `N[C@@H](C(=O)N1Cc2cn(S(=O)(=O)c3ccc4ncsc4c3)nc2C1)c1ccccc1Cl` [Compound 63, (2R)-2-amino-1-[2-(1,3-benzothiazole-6-sulfonyl)-2H,4H,5H,6H-pyrrolo[3,4-c]pyrazol-5-yl]-2-(2-chlorophenyl)ethan-1-one] gave an AC50 of 8.3 nM. Then `N[C@@H](C(=O)N1Cc2cn(S(=O)(=O)c3ccc4occc4c3)nc2C1)c1ccccc1F` [Compound 64, (2R)-2-amino-1-[2-(1-benzofuran-5-sulfonyl)-2H,4H,5H,6H-pyrrolo[3,4-c]pyrazol-5-yl]-2-(2-fluorophenyl)ethan-1-one], with 3.4 nM. The compound `O=C([C@H](O)c1ccccc1Cl)N1Cc2cn(S(=O)(=O)c3ccc4ncsc4c3)nc2C1` [Compound 65, (2R)-1-[2-(1,3-benzothiazole-6-sulfonyl)-2H,4H,5H,6H-pyrrolo [3,4-c]pyrazol-5-yl]-2-(2-chlorophenyl)-2-hydroxyethan-1-one] yielded an AC50 of 6.2 nM.

As to `O=C([C@H](O)c1ccccc1Cl)N1Cc2cn(S(=O)(=O)c3ccc4cn[nH]c4c3)nc2C1` [Compound 67, (2R)-2-(2-chlorophenyl)-2-hydroxy-1-[2-(1H-indazole-6-sulfonyl)-2H,4H,5H,6H-pyrrolo[3,4-c]pyrazol-5-yl]ethan-1-one], the AC50 turned out to be 29 nM. `O=C([C@H](O)c1ccccc1F)N1Cc2cn(S(=O)(=O)c3ccc(OC(F)F)cc3)nc2C1` [Compound 72, (2R)-1-[2-[4-(difluoromethoxy)benzenesulfonyl]-4H,6H-pyrrolo[3,4-c]pyrazol-5-yl]-2-(2-fluorophenyl)-2-hydroxyethanone] came in with a concentration at half-maximal activity (AC50) of 6 nM.

In turn, `O=CN[C@H](C(=O)N1Cc2cn(S(=O)(=O)c3ccc(OC(F)F)cc3)nc2C1)c1ccccc1` [Compound 73, N-[(1S)-2-{2-[4-(difluoromethoxy)benzenesulfonyl]-2H,4H,5H,6H-pyrrolo[3,4-c]pyrazol-5-yl}-2-oxo-1-phenylethyl]formamide] came in with a half-maximal activity concentration (AC50) of 13 nM. Compound `O=C(N1Cc2cn(S(=O)(=O)c3ccc(OC(F)F)cc3)nc2C1)C1(c2ncccc2Cl)COC1` [Compound 75, 3-chloro-2-(3-{2-[4-(difluoromethoxy)benzenesulfonyl]-2H,4H,5H,6H-pyrrolo[3,4-c]pyrazole-5-carbonyl}oxetan-3-yl)pyridine] returned a concentration at half-maximal activity (AC50) of 4.4 nM.

Consider `O=C([C@H](CO)c1ccccc1)N1Cc2cn(S(=O)(=O)c3cnc4c(c3)OCCO4)nc2C1` [Compound 76, (2S)-1-(2-{2H,3H-[1,4]dioxino[2,3-b]pyridine-7-sulfonyl}-2H,4H,5H,6H-pyrrolo[3,4-c]pyrazol-5-yl)-3-hydroxy-2-phenylpropan-1-one], for which the AC50 worked out at 6.9 nM.

Take `COc1ccc(S(=O)(=O)n2cc3c(n2)CN(C(=O)[C@H](CO)c2ccccc2)C3)cn1` [Compound 77, (2S)-3-hydroxy-1-{2-[(6-methoxypyridin-3-yl)sulfonyl]-2H,4H,5H,6H-pyrrolo[3,4-c]pyrazol-5-yl}-2-phenylpropan-1-one]: half-maximal activity (AC50) was put at 8.3 nM. Then `O=CN[C@@H](C(=O)N1Cc2cn(S(=O)(=O)c3ccc(OC(F)F)cc3)nc2C1)c1ccccc1F` [Compound 78, N-[(1R)-2-{2-[4-(difluoromethoxy)benzenesulfonyl]-2H,4H,5H,6H-pyrrolo[3,4-c]pyrazol-5-yl}-1-(2-fluorophenyl)-2-oxoethyl]formamide], with 4.7 nM. `O=C([C@H](CO)c1ccccc1F)N1Cc2cn(S(=O)(=O)c3ccc4ncsc4c3)nc2C1` [Compound 79, (2S)-1-[2-(1,3-benzothiazole-6-sulfonyl)-2H,4H,5H,6H-pyrrolo[3,4-c]pyrazol-5-yl]-2-(2-fluorophenyl)-3-hydroxypropan-1-one]: the AC50 worked out at 4.9 nM. Then `O=C([C@H](CO)c1ccccc1F)N1Cc2cn(S(=O)(=O)c3cnc4c(c3)OCCO4)nc2C1` [Compound 80, (2S)-1-(2-{2H,3H-[1,4]dioxino[2,3-b]pyridine-7-sulfonyl}-2H,4H,5H,6H pyrrolo[3,4-c]pyrazol-5-yl)-2-(2-fluorophenyl)-3-hydroxypropan-1-one], with 2.1 nM; and `O=CN[C@@H](C(=O)N1Cc2cn(S(=O)(=O)c3ccc4ncsc4c3)nc2C1)c1ccccc1Cl` [Compound 81, N-[(1R)-2-[2-(1,3-benzothiazole-6-sulfonyl)-2H,4H,5H,6H-pyrrolo[3,4-c]pyrazol-5-yl]-1-(2-chlorophenyl)-2-oxoethyl]formamide], with 3.8 nM. `O=C([C@H](CO)c1ccccc1)N1Cc2cn(S(=O)(=O)c3ccc4ncccc4c3)nc2C1` [Compound 82, (2S)-3-hydroxy-2-phenyl-1-[2-(quinoline-6-sulfonyl)-2H,4H,5H,6H-pyrrolo[3,4-c]pyrazol-5-yl]propan-1-one]: the activity was half-maximal at 5 nM (AC50). Then `O=C([C@H](CO)c1ccccc1)N1Cc2cn(S(=O)(=O)c3cccc(OC(F)F)c3)nc2C1` [Compound 83, (2S)-1-{2-[3-(difluoromethoxy)benzenesulfonyl]-2H,4H,5H,6H-pyrrolo[3,4-c]pyrazol-5-yl}-3-hydroxy-2-phenylpropan-1-one], with 7.9 nM. `O=C([C@H](CO)c1ccccc1F)N1Cc2cn(S(=O)(=O)c3ccc4occc4c3)nc2C1` [Compound 84, (2S)-1-[2-(1-benzofuran-5-sulfonyl)-2H,4H,5H,6H-pyrrolo[3,4-c]pyrazol-5-yl]-2-(2-fluorophenyl)-3-hydroxypropan-1-one] displayed a concentration at half-maximal activity (AC50) of 4.5 nM. With `O=C([C@H](CO)c1ccccc1F)N1Cc2cn(S(=O)(=O)c3ccc(OC(F)F)nc3)nc2C1` [Compound 85, (2S)-1-(2-[6-(difluoromethoxy)pyridin-3-yl]sulfonyl-2H,4H,5H,6H-pyrrolo[3,4-c]pyrazol-5-yl)-2-(2-fluorophenyl)-3-hydroxypropan-1-one], the activity was half-maximal at 6.8 nM (AC50). Then `O=C([C@H](CO)c1ccccc1Cl)N1Cc2cn(S(=O)(=O)c3cnc4occc4c3)nc2C1` [Compound 86, (2S)-2-(2-chlorophenyl)-1-(2-{furo[2,3-b]pyridine-5-sulfonyl}-2H,4H,5H,6H-pyrrolo[3,4-c]pyrazol-5-yl)-3-hydroxypropan-1-one], with 1.8 nM.
